Data on 17 molecules can be found in patent publication US8188135B2, “Compounds as cannabinoid receptor ligands” (priority 2008, dated 2012).

Like-named read-outs stand apart in the source and are kept apart here. Bounds are passed on as bounds.

One experiment deals with T1, rat CB2 (Rattus norvegicus, UniProt Q9QZN9).
T1 sequence (Q9QZN9 1-360): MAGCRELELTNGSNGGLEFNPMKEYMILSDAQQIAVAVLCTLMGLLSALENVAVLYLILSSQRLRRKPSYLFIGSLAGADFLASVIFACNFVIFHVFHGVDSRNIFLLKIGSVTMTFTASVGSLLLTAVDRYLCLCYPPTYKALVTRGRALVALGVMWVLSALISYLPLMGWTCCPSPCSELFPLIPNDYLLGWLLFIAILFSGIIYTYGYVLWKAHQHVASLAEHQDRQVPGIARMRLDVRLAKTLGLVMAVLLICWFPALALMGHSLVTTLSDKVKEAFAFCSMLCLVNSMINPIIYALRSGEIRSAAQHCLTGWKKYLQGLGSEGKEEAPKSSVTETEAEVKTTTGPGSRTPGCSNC
Description: rat CB2 radioligand binding assay ([3H]CP 55,940 competition). Also noted: expressed in transfected cells; host or cells: HEK293. To be noted: HEK293 membranes, 0.5 nM [3H]CP 55,940. As for the experimental part: (§1) The CB1 and CB2 radioligand binding assays described herein are utilized to ascertain the affinity of compounds of the present application for binding to CB2 relative to CB1 receptors.
HEK293 cells stably expressing rat CB2 receptors were grown until a confluent monolayer was formed. Briefly, the cells were harvested and homogenized in TE buffer (50 mM Tris-HCl, 1 mM MgCl2, and 1 mM EDTA) using a polytron for 2×10 second bursts in the presence of protease inhibitors, followed by centrifugation at 45,000×g for 20 minutes. The final membrane pellet was re-homogenized in storage buffer (50 mM Tris-HCl, 1 mM MgCl2, and 1 mM EDTA and 10% sucrose) and frozen at −78° C. until used. Saturation binding reactions were initiated by the addition of membrane preparation (protein concentration of 20 μg/well for rat CB2) into wells of a deep well plate containing [^3H]CP 55,940 (120 Ci/mmol, a nonselective CB agonist commercially available from Tocris) in assay buffer (50 mM Tris, 2.5 mM EDTA, 5 mM MgCl2, and 0.5 mg/mL fatty acid free BSA, pH 7.4). After 45 min incubation at 30° C., binding reaction was terminated by the addition of […] of cold assay buffer followed by rapid vacuum filtration through a UniFilter-96 GF/C filter plates (pre-soaked in 1 mg/mL BSA for 2 hours). The bound activity was counted in a TopCount using Microscint-20. Saturation experiments were conducted with twelve concentrations of [^3H]CP 55,940 ranging from 0.01 to 8 nM. Competition experiments were conducted with 0.5 nM [^3H]CP 55,940 and five concentrations of displacing ligands selected from the range of 0.01 nM to 10 μM. The addition of 10 μM unlabeled CP 55,940 (Tocris, Ellisville, Mo.) was used to assess nonspecific binding.

For another experiment, the target named is T2, human CB2 receptors (Homo sapiens, UniProt P34972).
T2 construct: expressed in transfected cells; host or cells: HEK293
Description: human CB2 radioligand binding assay ([3H]CP 55,940 competition). Conditions: HEK293 membranes, 0.5 nM [3H]CP 55,940. As for the experimental part: as §1
HEK293 cells stably expressing human CB2 receptors were grown until a confluent monolayer was formed. Briefly, the cells were harvested and homogenized in TE buffer (50 mM Tris-HCl, 1 mM MgCl2, and 1 mM EDTA) using a polytron for 2×10 second bursts in the presence of protease inhibitors, followed by centrifugation at 45,000×g for 20 minutes. The final membrane pellet was re-homogenized in storage buffer (50 mM Tris-HCl, 1 mM MgCl2, and 1 mM EDTA and 10% sucrose) and frozen at −78° C. until used. Saturation binding reactions were initiated by the addition of membrane preparation (protein concentration of 5 μg/well for human CB2) into wells of a deep well plate containing [^3H]CP 55,940 (120 Ci/mmol, a nonselective CB agonist commercially available from Tocris) in assay buffer (50 mM Tris, 2.5 mM EDTA, 5 mM MgCl2, and 0.5 mg/mL fatty acid free BSA, pH 7.4). After 90 min incubation at 30° C., binding reaction was terminated by the addition of 300 μL/well of cold assay buffer followed by rapid vacuum filtration through a UniFilter-96 GF/C filter plates (pre-soaked in 1 mg/mL BSA for 2 hours). The bound activity was counted in a TopCount using Microscint-20. Saturation experiments were conducted with twelve concentrations of [^3H]CP 55,940 ranging from 0.01 to 8 nM. Competition experiments were conducted with 0.5 nM [^3H]CP 55,940 and five concentrations (0.01 nM to 10 μM) of displacing ligands. The addition of 10 μM unlabeled CP 55,940 (Tocris, Ellisville, Mo.) was used to assess nonspecific binding.

T2 sequence (P34972 whole entry): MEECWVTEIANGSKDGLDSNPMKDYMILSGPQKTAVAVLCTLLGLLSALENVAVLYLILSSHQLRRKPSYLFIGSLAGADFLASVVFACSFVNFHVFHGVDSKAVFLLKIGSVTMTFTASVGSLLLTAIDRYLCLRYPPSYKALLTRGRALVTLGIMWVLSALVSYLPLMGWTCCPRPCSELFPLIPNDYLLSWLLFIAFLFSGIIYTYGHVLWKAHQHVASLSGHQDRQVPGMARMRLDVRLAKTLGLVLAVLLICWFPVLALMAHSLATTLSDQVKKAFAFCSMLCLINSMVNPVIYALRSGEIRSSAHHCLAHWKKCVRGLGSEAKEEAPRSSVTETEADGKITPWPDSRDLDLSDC

Broadly, the Ki is the equilibrium dissociation constant of an inhibitor or competing ligand from its target. For `C=CC(O)COc1ccc(C(F)(F)F)cc1C(=O)/N=c1\cc(C(C)(C)C)n(C)n1C[C@H]1CCCO1` (stereo partly drawn) [Example 101, N-{(3E)-5-tert-butyl-1-methyl-2-[(2R)-tetrahydrofuran-2-ylmethyl]-1,2-dihydro-3 H-pyrazol-3-ylidene}-2-[(2-hydroxybut-3-enyl)oxy]-5-(trifluoromethyl)benzamide], the Ki worked out at 2.8 nM at rat CB2 (rat CB2 (Ki, nM)) and 1 nM on human CB2 receptors (human CB2 (Ki, nM)).

As for `Cn1c(C(C)(C)C)c/c(=N\C(=O)c2cc(C(F)(F)F)ccc2OCc2ccccn2)n1C[C@H]1CCCO1` [Example 38, N-{(3E)-5-tert-butyl-1-methyl-2-[(2R)-tetrahydrofuran-2-ylmethyl]-1,2-dihydro-3H-pyrazol-3-ylidene}-2-(pyridin-2-ylmethoxy)-5-(trifluoromethyl)benzamide], the Ki on rat CB2 (rat CB2 (Ki, nM)) was 26 nM; on human CB2 receptors (read-out: human CB2 (Ki)) it was over 1000 nM.

In the case of `C[C@H](c1ccccc1)N1C[C@@H](COc2ccc(C(F)(F)F)cc2C(=O)/N=c2\cc(C(C)(C)C)n(C)n2C[C@H]2CCCO2)OC1=O` [Example 44, N-{(3E)-5-tert-butyl-1-methyl-2-[(2R)-tetrahydrofuran-2-ylmethyl]-1,2-dihydro-3H-pyrazol-3-ylidene}-2-({(5 S)-2-oxo-3-[(1R)-1-phenylethyl]-1,3-oxazolidin-5-yl}methoxy)-5-(trifluoromethyl)benzamide], the Ki at rat CB2 (rat CB2 (Ki, nM)) is 408 nM; on human CB2 receptors (human CB2 (Ki, nM)), over 1000 nM.

Regarding `Cn1c(C(C)(C)C)c/c(=N\C(=O)c2cc(C(F)(F)F)ccc2OCC2CCSCC2)n1C[C@H]1CCCO1` [Example 80, N-{(3E)-5-tert-butyl-1-methyl-2-[(2R)-tetrahydrofuran-2-ylmethyl]-1,2-dihydro-3 H-pyrazol-3-ylidene}-2-(tetrahydro-2H-thiopyran-4-ylmethoxy)-5-(trifluoromethyl)benzamide], the Ki worked out at 75 nM at rat CB2 (rat CB2 (Ki, nM)) and 126 nM on human CB2 receptors (read-out: human CB2 (Ki)).

Consider `CCCCn1/c(=N/C(=O)c2cc(C(F)(F)F)ccc2SCC(N)=O)cc(C(C)(C)C)n1C` [Example 140, 2-[(2-amino-2-oxoethyl)thio]-N-[(3E)-2-butyl-5-tert-butyl-1-methyl-1,2-dihydro-3H-pyrazol-3-ylidene]-5-(trifluoromethyl)benzamide], for which the Ki on rat CB2 (rat CB2 (Ki, nM)) is 11 nM; at human CB2 receptors (human CB2 (Ki, nM)), 136 nM.

With `CCCCn1oc(C(C)(C)C)c/c1=N\C(=O)c1cc(C(F)(F)F)ccc1OCC(C)(C)O` [Example 100, N-[(3E)-2-butyl-5-tert-butylisoxazol-3(2H)-ylidene]-2-(2-hydroxy-2-methylpropoxy)-5-(trifluoromethyl)benzamide], the Ki at rat CB2 (rat CB2 (Ki, nM)) was determined as 1.3 nM; on human CB2 receptors (human CB2 (Ki, nM)), 1.7 nM.

For `CC(C)(O)COc1ccc(C(F)(F)F)cc1C(=O)/N=c1\sc(C(C)(C)C)nn1CC1(C)COC1` [Example 97, N-[(2Z)-5-tert-butyl-3-[(3-methyloxetan-3-yl)methyl]-1,3,4-thiadiazol-2(3 H)-ylidene]-2-(2-hydroxy-2-methylpropoxy)-5-(trifluoromethyl)benzamide], the Ki was 13 nM on rat CB2 (rat CB2 (Ki, nM)) and 31.6 nM on human CB2 receptors (human CB2 (Ki, nM)).

On to `CCCCn1/c(=N/C(=O)c2cc([N+](=O)[O-])ccc2OCC(C)(C)O)cc(C(C)(C)C)n1C` [Example 138, N-[(3E)-2-butyl-5-tert-butyl-1-methyl-1,2-dihydro-3H-pyrazol-3-ylidene]-2-(2-hydroxy-2-methylpropoxy)-5-nitrobenzamide], for which the Ki at rat CB2 (rat CB2 (Ki, nM)) worked out at 19 nM; at human CB2 receptors (human CB2 (Ki, nM)), 1.6 nM.

With `CC1=NOC(Cn2/c(=N/C(=O)c3cc(C(F)(F)F)ccc3OC[C@@H]3CCCO3)cc(C(C)(C)C)n2C)C1` (stereo partly drawn) [Example 31, N-{(3E)-5-tert-butyl-1-methyl-2-[(3-methyl-4,5-dihydroisoxazol-5-yl)methyl]-1,2-dihydro-3H-pyrazol-3-ylidene}-2-[(2S)-tetrahydrofuran-2-ylmethoxy]-5-(trifluoromethyl)benzamide], the inhibition constant (Ki) came to 63 nM on rat CB2 (rat CB2 (Ki, nM)) and 239 nM on human CB2 receptors (human CB2 (Ki, nM)).

As to `Cn1c(C(C)(C)C)c/c(=N\C(=O)c2cc(C(F)(F)F)ccc2OCC(C)(C)S(C)(=O)=O)n1C[C@H]1CCCO1` [Example 65, N-{(3E)-5-tert-butyl-1-methyl-2-[(2R)-tetrahydrofuran-2-ylmethyl]-1,2-dihydro-3H-pyrazol-3-ylidene}-2-[2-methyl-2-(methylsulfonyl)propoxy]-5-(trifluoromethyl)benzamide], the Ki at rat CB2 (read-out: rat CB2 (Ki)) and on human CB2 receptors (read-out: human CB2 (Ki)) was over 1000 nM in each case.

For the molecule `CCCCn1nc(C(C)(C)C)s/c1=N\C(=O)c1cc(C(F)(F)F)ccc1OCC(C)(C)O` [Example 84, N-[(2Z)-3-butyl-5-tert-butyl-1,3,4-thiadiazol-2(3H)-ylidene]-2-(2-hydroxy-2-methylpropoxy)-5-(trifluoromethyl)benzamide], the Ki on rat CB2 (rat CB2 (Ki, nM)) amounted to 1.5 nM; at human CB2 receptors (human CB2 (Ki, nM)), 1.8 nM.

Turning to `CC[C@H](O)COc1ccc(C(F)(F)F)cc1C(=O)/N=c1\cc(C(C)(C)C)n(C)n1C[C@H]1CCCO1` [Example 109, N-{(3E)-5-tert-butyl-1-methyl-2-[(2R)-tetrahydrofuran-2-ylmethyl]-1,2-dihydro-3H-pyrazol-3-ylidene}-2-{[(2S)-2-hydroxybutyl]oxy}-5-(trifluoromethyl)benzamide], the Ki at rat CB2 (rat CB2 (Ki, nM)) amounted to 1.2 nM; at human CB2 receptors (human CB2 (Ki, nM)), 1.3 nM.

For `CO[C@H]1CCO[C@@H]1COc1ccc(C(F)(F)F)cc1C(=O)/N=c1\cc(C(C)(C)C)n(C)n1C[C@H]1CCCO1` [Example 22], the results for the inhibition constant (Ki) at rat CB2 (read-out: rat CB2 (Ki)) and on human CB2 receptors (read-out: human CB2 (Ki)) were 424 nM and over 1000 nM, respectively.

Regarding `Cn1c(C(C)(C)C)c/c(=N\C(=O)c2cc(C(F)(F)F)ccc2OCC(C)(C)CO)n1C[C@H]1CCCO1` [Example 116, N-{(3E)-5-tert-butyl-1-methyl-2-[(2R)-tetrahydrofuran-2-ylmethyl]-1,2-dihydro-3H-pyrazol-3-ylidene}-2-(3-hydroxy-2,2-dimethylpropoxy)-5-(trifluoromethyl)benzamide], the results for the Ki at rat CB2 (read-out: rat CB2 (Ki)) and at human CB2 receptors (read-out: human CB2 (Ki)) were 199 nM and over 1000 nM, respectively.

With `C[C@H](O)COc1ccc(C(F)(F)F)cc1C(=O)/N=c1\cc(C(C)(C)C)n(C)n1C[C@H]1CCCO1` [Example 98, N-{(3E)-5-tert-butyl-1-methyl-2-[(2R)-tetrahydrofuran-2-ylmethyl]-1,2-dihydro-3 H-pyrazol-3-ylidene}-2-{[(2S)-2-hydroxypropyl]oxy}-5-(trifluoromethyl)benzamide], the Ki at rat CB2 (rat CB2 (Ki, nM)) is 6.6 nM; on human CB2 receptors (human CB2 (Ki, nM)), 4.6 nM.

Regarding `CC(C)c1c/c(=N\C(=O)c2cc(C(F)(F)F)ccc2OCC(C)(C)O)n(CC2CCCC2)n1C` [Example 114, N-[(3E)-2-(cyclopentylmethyl)-5-isopropyl-1-methyl-1,2-dihydro-3H-pyrazol-3-ylidene]-2-(2-hydroxy-2-methylpropoxy)-5-(trifluoromethyl)benzamide], the Ki on rat CB2 (rat CB2 (Ki, nM)) came out at 35 nM; on human CB2 receptors (read-out: human CB2 (Ki)), 129 nM.

In the case of `C/C(COc1ccc(C(F)(F)F)cc1C(=O)/N=c1\cc(C(C)(C)C)n(C)n1C[C@H]1CCCO1)=N\OC1CCCCO1` (stereo partly shown) [Example 79], the Ki at rat CB2 (read-out: rat CB2 (Ki)) is 128 nM; at human CB2 receptors (read-out: human CB2 (Ki)) it was over 1000 nM.
